Experiments:
[1] = target: T1, Recombinant human protein tyrosine phosphatase 1B (PTP1B) (Homo sapiens, UniProt P18031); assay: In vitro PTP1B inhibition assay (pNPP hydrolysis, absorbance at 405 nm); assay type: biochemical; conditions: for IC50: isolated compounds, mean ± SD, n = 3
T1 construct: purchased Enzo Life Sciences Inc. BML-SE332-0050
T1 sequence (P18031 1-322 limits assumed): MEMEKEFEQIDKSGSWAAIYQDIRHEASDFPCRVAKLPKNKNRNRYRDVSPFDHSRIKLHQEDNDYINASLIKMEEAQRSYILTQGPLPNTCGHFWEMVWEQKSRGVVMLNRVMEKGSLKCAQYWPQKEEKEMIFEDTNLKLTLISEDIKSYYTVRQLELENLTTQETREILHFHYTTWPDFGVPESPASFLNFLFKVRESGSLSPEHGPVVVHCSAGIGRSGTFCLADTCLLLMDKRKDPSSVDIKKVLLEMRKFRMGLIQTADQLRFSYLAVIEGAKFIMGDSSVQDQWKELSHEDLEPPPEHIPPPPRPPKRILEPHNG
Procedure: (§1) Based on the method described by Tahtah et al., the PTP1B inhibition assay was performed at 25 °C using a two-component buffer, containing 50 mM Tris, 50 mM bis-Tris and 100 mM NaCl, adjusted to pH 7.0 with acetic acid. The final reaction volume was 180 µL, including 18 µL test sample dissolved in DMSO, 52 µL of buffer with 3.46 mM EDTA (final well concentrations 10% DMSO and 1 mM EDTA), and 60 µL of buffer with 1.5 mM pNPP and 6 mM DTT (final well concentrations 0.5 mM pNPP and 2 mM DTT). After preincubation at 25 °C for 10 min, the reaction was started by addition of 50 µL of 0.001 µg/µL PTP1B stock solution (final well concentration: 0.05 µg/well). The hydrolysis rate of pNPP to release p-nitrophenol was determined by measuring the absorbance at 405 nm every 30 s for 10 min. Preincubation and absorbance measurements were performed with a Multiscan FC microplate photometer with a built-in incubator (Thermo Scientific, Waltham, MA, USA) coupled to SkanIt version 2.5.1 software for data acquisition. The PTP1B inhibitory activity was expressed as percentage inhibition and was calculated using the following formula: % inhibition = (Slopeblank − Slopesample)/Slopeblank × 100
RK682 was used as a positive control and all measurements were performed in triplicate. Dose-response curves and IC50 values were obtained using GraFit version 5 (Erithacus Software Ltd., Horley, UK).

[2] = target: T1, Recombinant human protein tyrosine phosphatase 1B (PTP1B); assay: Kinetics of PTP1B inhibition (Lineweaver-Burk plots, Michaelis-Menten fit); assay type: biochemical; conditions: for Mode of Inhibition: from Lineweaver-Burk plots; for Ki: pNPP 0.125-4.0 mM, mean ± SD, n = 3
Procedure: as §1
Enzyme kinetics of isolated PTP1B inhibitors was measured in triplicate using the standard assay conditions described above. Reactions were carried out with increasing concentrations of pNPP (0.125, 0.25, 0.5, 1.0, 2.0 and 4.0 mM) as substrate in the absence and presence of test samples (4 concentrations). The mode of inhibition was determined graphically from the Lineweaver-Burk plots. Kinetic parameters were calculated by fitting the data to the Michaelis–Menten equation using non-linear regression analysis (GraphPad Prism 7.0, GraphPad Software Inc., La Jolla, CA, USA).

PTP1B = conditions: cited from earlier work; for IC50: read-out: IC50 against PTP1B

Row | Compound | IC50 [1] | Mode of Inhibition [2] | Ki [2] | IC50 (PTP1B) | PTP1B inhibition at 25 µM (PTP1B; concentration 25 µM) | IC50 of RK682 ([1]; positive control in crude extract screening)
1 | CC1(C)C=Cc2c(cc3occ(-c4ccc(O)cc4)c(=O)c3c2O)O1 [Compound 3, alpinumisoflavone] | 21.2 ± 3.8 µM | Non-competitive | 14.3 ± 2 µM | 37.52 ± 0.31 µM |  | 
2 | CC1(C)C=Cc2cc(-c3coc4cc(O)cc(O)c4c3=O)ccc2O1 [Compound 1, isoderrone] | 22.7 ± 1.7 µM | Non-competitive | 21.3 ± 2.8 µM |  | 78% | 
3 | CCCCCCCCCCCCCCCC(=O)C1=C(O)C(CO)OC1=O (centres unmarked) [RK682, reference compound] | 10.4 ± 1.6 µM |  |  |  |  | 3.8 ± 0.6 µg/mL
4 | CC1(C)C=Cc2c(cc(O)c3c(=O)c(-c4ccc(O)cc4)coc23)O1 [Compound 2, derrone] | 12.6 ± 1.6 µM | Non-competitive | 7.9 ± 1.9 µM | 20.63 ± 0.17 µM |  | 
5 | CC(C)=C[C@@H]1C[C@](C)(/C=C/c2cc(-c3coc4cc(O)cc(O)c4c3=O)ccc2O)Oc2ccc(-c3coc4cc(O)cc(O)c4c3=O)cc21 [Compound 4, mucusisoflavone B] | 2.5 ± 0.2 µM | Non-competitive | 3 ± 0.5 µM |  |  | 

Reference: publication PMC6152321, “High-Resolution Inhibition Profiling Combined with HPLC-HRMS-SPE-NMR for Identification of PTP1B Inhibitors from Vietnamese Plants” (Molecules : A Journal of Synthetic Chemistry and Natural …, 2017)
